Results on one compound are retold here after patent US8765098B2, “Star polymers, methods of preparation thereof, and uses thereof” (International Business Machines Corporation, priority 2010, dated 2014).

This series is described as follows: Appearance of aqueous mixtures of star polymer, dye alone and loaded star polymers (FIG. 10). The conditions noted are these: in water, FIG. 10 vials A-D. The format is physicochemical. As for the experimental part: The solution was added drop-wise to water (0.9 mL) with rapid stirring, causing the water to rapidly and uniformly color from the dye. Excess solid dye material not adsorbed to the star polymer was removed by passing the mixture through a 0.2 micrometer syringe filter, thereby forming a clear and uniformly colored aqueous solution. The further addition of water had no visible effect on the homogeneity of the solution.
FIG. 10 is a photograph of four aqueous mixtures. […] The vial labeled C is an aqueous mixture of 5,10,15,20-(3,5-ditertbutylphenyl)porphyrin (M=2H) (DTBP) alone in water.

For the compound `CC(C)(C)c1cc(-c2c3nc(c(-c4cc(C(C)(C)C)cc(C(C)(C)C)c4)c4ccc([nH]4)c(-c4cc(C(C)(C)C)cc(C(C)(C)C)c4)c4nc(c(-c5cc(C(C)(C)C)cc(C(C)(C)C)c5)c5ccc2[nH]5)C=C4)C=C3)cc(C(C)(C)C)c1` [DTBP, 5,10,15,20-(3,5-ditertbutylphenyl)porphyrin (M=2H)], the “appearance of aqueous solution / mixture” value was “clear and colorless”.
